Data on eleven molecules can be found in PMC9490041, “Determinants of affinity, specificity, and phase separation in a supramodule from Post-synaptic density protein 95” (iScience, 2022).

Holding throughout (experiment): FP displacement (competition) of FITC-15 AA CRIPT by library peptide, IC50 and Ki
Assay [1] deals with PSG G335A (PSD-95). As to conditions: for IC50: read-out: IC50 (µM), PSG G335A; for Ki: read-out: Ki (µM), PSG G335A.
Assay [2] has as its target PSG G322A (PSD-95). To be noted: for IC50: read-out: IC50 (µM), PSG G322A; for Ki: read-out: Ki (µM), PSG G322A.
In assay [3] the target is PSG G322A G335A (PSD-95). To be noted: for IC50: read-out: IC50 (µM), PSG G322A G335A; for Ki: read-out: Ki (µM), PSG G322A G335A.
The target of assay [4] is PSG (PSD-95). As to conditions: for IC50: read-out: IC50 (µM), PSG.
The mark [5] stands for this setting: FP displacement of FITC-15 AA CRIPT probe by acetylated PSD library peptide.
[6] abbreviates: FP displacement of FITC-15 AA CRIPT probe by acetylated PSD library peptide (P-13 to P0 plus extra N-terminal Y).
Setting [7] is: read-out: Ki (µM), PSG, FP displacement of FITC-15 AA CRIPT probe by acetylated PSD library peptide.
Setting [8] is: FP displacement of FITC-15 AA CRIPT probe by PSD library peptide, protein PSG G335A.
Where [9] appears, read: FP displacement of FITC-15 AA CRIPT probe by PSD library peptide, protein PSG G322A.
The mark [10] stands for this setting: FP displacement of FITC-15 AA CRIPT probe by PSD library peptide, protein PSG G322A G335A.
The mark [11] stands for this setting: FP displacement of FITC-15 AA CRIPT probe by PSD library peptide, protein PSG (wild type).
The mark [12] stands for this setting: read-out: Ki (µM), PSG, FP displacement of FITC-15 AA CRIPT probe by PSD library peptide, protein PSG (wild type).

Read-outs that look alike come from different tables or passages of the source. Ends that are not written are not given here.

The IC50 is the midpoint of a concentration-inhibition curve. The Ki is a dissociation constant, usually derived from enzyme kinetics or from competition with a known ligand. As to `CC(=O)N[C@@H](Cc1ccc(O)cc1)C(=O)N[C@H](C(=O)N[C@@H](CCC(=O)O)C(=O)N[C@@H](CO)C(=O)N[C@@H](CCCCN)C(=O)N[C@@H](CCCCN)C(=O)N[C@@H](Cc1c[nH]cn1)C(=O)NCC(=O)N[C@@H](CCCNC(=N)N)C(=O)N[C@@H](Cc1c[nH]c2ccccc12)C(=O)N[C@@H](CCCCN)C(=O)N[C@@H](CC(C)C)C(=O)N[C@@H](Cc1c[nH]c2ccccc12)C(=O)N[C@@H](Cc1ccccc1)C(=O)N[C@@H](CC(C)C)C(=O)O)[C@@H](C)O` [INSY2], the IC50 is 1230 µM in assay [1] (setting [5]), 83 µM in assay [2] (setting [5]), 980 µM in assay [3] (setting [6]) and 380 µM in assay [4] (setting [5]). The Ki worked out at 438 µM in assay [1] (setting [5]), 36 µM in assay [2] (setting [5]), 339 µM in assay [3] (setting [5]) and 161 µM in assay [4] (setting [7]).

In the case of `CC[C@H](C)[C@H](NC(=O)[C@H](CC(N)=O)NC(=O)CNC(=O)CNC(=O)[C@H](CO)NC(=O)[C@H](Cc1ccc(O)cc1)NC(=O)[C@H](CCC(=O)O)NC(=O)[C@@H]1CCCN1C(=O)[C@H](Cc1ccc(O)cc1)NC(C)=O)C(=O)N[C@H](C(=O)N[C@@H](CCCNC(=N)N)C(=O)N[C@H](C(=O)N[C@@H](CO)C(=O)N[C@@H](C)C(=O)N[C@@H](CC(C)C)C(=O)O)C(C)C)C(C)C` [KCND2], the IC50 in assay [1] (setting [8]) is 237 µM; in assay [2] (setting [9]), 564 µM; in assay [3] (setting [10]), 343 µM; in assay [4] (setting [11]), 1500 µM. For the same molecule, the Ki was 84 µM in assay [1] (setting [8]), 244 µM in assay [2] (setting [9]), 119 µM in assay [3] (setting [10]) and 793 µM in assay [4] (setting [12]).

As to `CC[C@H](C)[C@H](NC(=O)[C@H](CCC(=O)O)NC(=O)[C@@H](NC(=O)[C@H](CO)NC(=O)[C@H](CCC(=O)O)NC(=O)[C@@H](NC(=O)[C@H](CCCNC(=N)N)NC(=O)[C@H](CCC(=O)O)NC(=O)[C@H](CC(C)C)NC(=O)[C@H](CCCNC(=N)N)NC(=O)[C@H](CO)NC(=O)[C@@H]1CCCN1C(=O)[C@@H](NC(=O)[C@H](Cc1c[nH]c2ccccc12)NC(=O)[C@H](Cc1ccc(O)cc1)NC(C)=O)[C@@H](C)O)[C@@H](C)CC)[C@@H](C)O)C(=O)O` [LZTS3], the IC50 in assay [1] (setting [8]) worked out at 630 µM; in assay [2] (setting [9]) it was 462 µM; in assay [3] (setting [10]), 662 µM; in assay [4] (setting [11]) it was 2120 µM. The Ki in assay [1] (setting [8]) is 224 µM; in assay [2] (setting [9]), 200 µM; in assay [3] (setting [10]), 229 µM; in assay [4] (setting [12]), 902 µM.

Regarding `CC[C@H](C)[C@H](NC(=O)[C@@H](NC(=O)[C@H](CCCCN)NC(=O)[C@H](CCCCN)NC(=O)CNC(=O)[C@H](CC(C)C)NC(=O)[C@H](CCCCN)NC(=O)[C@H](C)NC(=O)[C@H](CCSC)NC(=O)[C@H](CCCNC(=N)N)NC(=O)[C@H](CCSC)NC(=O)[C@H](CCCNC(=N)N)NC(=O)[C@H](CC(C)C)NC(=O)[C@H](C)NC(=O)[C@H](Cc1ccc(O)cc1)NC(C)=O)C(C)C)C(=O)O` [PALMD], the IC50 in assay [1] (setting [5]) stood at 1600 µM; in assay [2] (setting [5]) it was 1450 µM; in assay [3] (setting [6]), 1630 µM; in assay [4] (setting [5]) it was 1160 µM. For the same molecule, the inhibition constant Ki in assay [1] (setting [5]) is 569 µM; in assay [2] (setting [5]), 629 µM; in assay [3] (setting [5]), 564 µM; in assay [4] (setting [7]) it was 493 µM.

As for `CC(=O)N[C@@H](Cc1ccc(O)cc1)C(=O)N[C@@H](CCCNC(=N)N)C(=O)N[C@@H](CCC(N)=O)C(=O)N1CCC[C@H]1C(=O)N[C@@H](CC(C)C)C(=O)N1CCC[C@H]1C(=O)N[C@@H](CC(=O)O)C(=O)N[C@@H](CO)C(=O)N[C@@H](CC(N)=O)C(=O)N1CCC[C@H]1C(=O)N[C@@H](CCC(=O)O)C(=O)N[C@@H](CCC(=O)O)C(=O)N[C@@H](CO)C(=O)N[C@@H](CO)C(=O)N[C@H](C(=O)O)C(C)C` [SEM4C], the IC50 is 329 µM in assay [1] (setting [8]), 156 µM in assay [2] (setting [9]), 147 µM in assay [3] (setting [10]) and 631 µM in assay [4] (setting [11]). Also, the Ki in assay [1] (setting [8]) was found to be 117 µM; in assay [2] (setting [9]) it was 68 µM; in assay [3] (setting [10]), 51 µM; in assay [4] (setting [12]), 269 µM.

Consider `CC(=O)N[C@@H](Cc1ccc(O)cc1)C(=O)N1CCC[C@H]1C(=O)N[C@@H](CCC(N)=O)C(=O)N[C@@H](Cc1c[nH]cn1)C(=O)N[C@@H](CC(C)C)C(=O)N[C@@H](CCCNC(=N)N)C(=O)N[C@H](C(=O)N[C@@H](C)C(=O)N[C@@H](CO)C(=O)N[C@@H](CCCCN)C(=O)N[C@@H](CC(N)=O)C(=O)N[C@@H](CCC(=O)O)C(=O)N[C@H](C(=O)N[C@H](C(=O)N[C@H](C(=O)O)C(C)C)[C@@H](C)O)C(C)C)[C@@H](C)O` [SHSA7], for which the IC50 stood at 980 µM in assay [1] (setting [8]), 695 µM in assay [2] (setting [9]), 1680 µM in assay [3] (setting [10]) and 1120 µM in assay [4] (setting [11]). Moreover, the Ki amounted to 349 µM in assay [1] (setting [8]), 301 µM in assay [2] (setting [9]), 580 µM in assay [3] (setting [10]) and 475 µM in assay [4] (setting [12]).

`CC(=O)N[C@@H](Cc1ccc(O)cc1)C(=O)N[C@@H](CO)C(=O)N[C@@H](CO)C(=O)N[C@H](C(=O)N[C@@H](CO)C(=O)N1CCC[C@H]1C(=O)N[C@@H](CCC(N)=O)C(=O)N[C@@H](CO)C(=O)N[C@H](C(=O)N[C@@H](CC(=O)O)C(=O)N[C@@H](CCCCN)C(=O)N[C@@H](CO)C(=O)N[C@@H](CO)C(=O)N[C@H](C(=O)N[C@H](C(=O)O)C(C)C)[C@@H](C)O)[C@@H](C)O)[C@@H](C)O` [SRGP2]: the IC50 in assay [1] (setting [8]) stood at 603 µM; in assay [2] (setting [9]), 792 µM; in assay [3] (setting [10]), 435 µM; in assay [4] (setting [11]), 1450 µM. The Ki in assay [1] (setting [8]) came to 215 µM; in assay [2] (setting [9]), 343 µM; in assay [3] (setting [10]) it was 151 µM; in assay [4] (setting [12]) it was 765 µM.

In the case of `CC(=O)N[C@@H](Cc1ccc(O)cc1)C(=O)N[C@@H](CC(C)C)C(=O)N[C@@H](C)C(=O)N[C@@H](CC(=O)O)C(=O)N[C@@H](CCC(=O)O)C(=O)N[C@H](C(=O)N[C@@H](CO)C(=O)N[C@@H](C)C(=O)N[C@@H](CO)C(=O)N[C@@H](CC(C)C)C(=O)N[C@@H](C)C(=O)N[C@@H](CCCCN)C(=O)N[C@@H](CCC(N)=O)C(=O)NCC(=O)N[C@@H](CC(C)C)C(=O)O)C(C)C` [TAU], the IC50 in assay [1] (setting [8]) was found to be 729 µM; in assay [2] (setting [9]), 489 µM; in assay [3] (setting [10]), 219 µM; in assay [4] (setting [11]), 2070 µM. Besides, the Ki in assay [1] (setting [8]) is 260 µM; in assay [2] (setting [9]), 212 µM; in assay [3] (setting [10]) it was 76 µM; in assay [4] (setting [12]), 884 µM.

On to `CC[C@H](C)[C@H](NC(=O)[C@H](CCC(=O)O)NC(=O)[C@H](CCC(=O)O)NC(=O)[C@@H](NC(=O)[C@@H](NC(=O)[C@H](CO)NC(=O)[C@H](CCC(=O)O)NC(=O)[C@H](Cc1ccc(O)cc1)NC(C)=O)[C@@H](C)O)[C@@H](C)O)C(=O)N[C@@H](CCC(=O)O)C(=O)N[C@@H](CC(C)C)C(=O)N[C@@H](CCC(=O)O)C(=O)N[C@@H](CC(=O)O)C(=O)N[C@H](C(=O)N[C@@H](CCC(=O)O)C(=O)N[C@@H](CS)C(=O)O)C(C)C` [VSTM5], for which the IC50 in assay [1] (setting [5]) amounted to 120 µM; in assay [2] (setting [5]) it was 86 µM; in assay [3] (setting [6]), 73 µM; in assay [4] (setting [5]), 75 µM. For the same molecule, the Ki was 43 µM in assay [1] (setting [5]); 37 µM in assay [2] (setting [5]); less than 75 µM in assay [4] (FP displacement of 5 nM FITC-15 AA CRIPT by non-labeled acetylated peptide, room temperature, Ki from IC50, technical triplicates, PSG); 31 µM in assay [4] (setting [7]).

As for Ac-YLTGAPLATSDETSI [SEM4F], the IC50 worked out at 764 µM in assay [1] (setting [5]), 503 µM in assay [2] (setting [5]), 536 µM in assay [3] (setting [6]) and 1740 µM in assay [4] (setting [5]). In addition, the Ki in assay [1] (setting [5]) was 272 µM; in assay [2] (setting [5]) it was 218 µM; in assay [3] (setting [5]) it was 185 µM; in assay [4] (setting [7]) it was 743 µM.

Consider Ac-YPPSSPTLSVSSTSL [KLH17], for which the IC50 in assay [1] (setting [5]) is 1430 µM; in assay [2] (setting [5]) it was 1550 µM; in assay [3] (setting [6]), 997 µM; in assay [4] (setting [5]) it was 1590 µM. For the same molecule, the Ki in assay [1] (setting [5]) worked out at 510 µM; in assay [2] (setting [5]) it was 671 µM; in assay [3] (setting [5]), 345 µM; in assay [4] (setting [7]) it was 679 µM.
